Experimental data: patent publication US20130156832A1, “EUDERMIC COMPOSITIONS” (Miso S.r.I., priority 2010, published 2013)

Test: Saturation concentration (solubility) of salicylic acid in vehicle A (water)
Type: physicochemical

saturation concentration (Cs, SA-A): 2 mg/mL
SMILES: O=C(O)c1ccccc1O [salicylic acid]
